Source: US20230041996A1, “CALCIUM-SENSING RECEPTOR AGONIST COMPOUND AND APPLICATION THEREOF” (BEIJING TUO JIE BIOPHARMACEUTICAL CO. LTD., priority 2019, published 2023)
pEC50: −log10 of the molar value. Square brackets hold non-standard residues; d marks the D form. Peptide text beside a SMILES is read from it. * marks the point of attachment. dPhe(4-Me) = Cc1ccc(C[C@@H](N)C(=O)O)cc1; Cys(free,S-linked) = N[C@@H](CS*)C(=O)O; d(hLeu) = CC(C)CC[C@@H](N)C(=O)O; dChg = N[C@@H](C(=O)O)C1CCCCC1; dTle = CC(C)(C)[C@@H](N)C(=O)O

How the values were obtained:
human red blood cells = test: Hemolytic effect on human red blood cells in vitro (absorbance at 540 nm); type: cell-based; details: 37° C., 1 h, FIG. 1
Description: To evaluate the hemolytic effect of the compounds disclosed herein on red blood cells in vitro, human whole blood (100 μL) was taken and mixed with a phosphate buffer. The mixture was centrifuged at 4° C. for 10 min and the supernatant was discarded. The red blood cells were resuspended in PBS buffer (900 μL) and centrifuged at 4° C. for 10 min with the supernatant discarded, and the procedures above were repeated once. The test example compounds were dissolved in 1×PBS buffer to a final concentration of 100 μg/mL. The red blood cells were resuspended in solutions of various test example compounds, an octylphenoxy poly(ethyleneoxy)ethanol-100 solution or PBS buffer, and incubated at 37° C. for 1 h. After incubation, the cells were centrifuged at 4° C. for 10 min and the supernatant (100 μL) was pipetted and transferred to a 96-well plate. The absorbance at 540 nm was detected for evaluating the hemolytic effect of the test example compounds on red blood cells in vitro.

[1] = system: rat peritoneal mast cells; test: In vitro histamine release in rat peritoneal mast cells (histamine ELISA); type: cell-based; details: for Relative fold of histamine release in vitro: test compound final concentration 10 μM, 15 min at 37° C., relative to PBS buffer (1.00)
Description: To evaluate the in vitro histamine release levels induced by some of the test example compounds, rat peritoneal mast cells were collected by lavaging rat peritoneum with a lavage buffer (cold HBSS+25 mM HEPES containing heparin 5 U/mL, pH 7.4). After collection, the cells were centrifuged, and the lavage buffer was discarded. The cells were resuspended and washed twice with a stimulation buffer (HBSS+25 mM HEPES+1 mM CaCl2), pH 7.4). The cells were plated at a density of 10^5 cell/well (200 μL/well) and incubated at 37° C. for 15 min with positive control compound 48/80 (final concentration: 4 μg/mL), test example compounds (final concentration: 10 μM) or vehicle control. The cells were centrifuged, and cell supernatant was collected and tested for histamine concentration according to LDN Histamine ELISA kit (BAE-1000) instructions.

[2] = target: T1, human calcium-sensing receptor (CaSR) (Homo sapiens, UniProt P41180); test: Agonist activity on human calcium-sensing receptor (IP-One HTRF in stably transfected HEK293/CaSR cells); type: cell-based; details: HEK293/CaSR cells, IP-One production, 60 min at 37° C., CaCl2 1.2 mM; read-out: EC50 for calcium-sensing receptor
T1 construct: host or cells: HEK293
T1 sequence (P41180 20-1078): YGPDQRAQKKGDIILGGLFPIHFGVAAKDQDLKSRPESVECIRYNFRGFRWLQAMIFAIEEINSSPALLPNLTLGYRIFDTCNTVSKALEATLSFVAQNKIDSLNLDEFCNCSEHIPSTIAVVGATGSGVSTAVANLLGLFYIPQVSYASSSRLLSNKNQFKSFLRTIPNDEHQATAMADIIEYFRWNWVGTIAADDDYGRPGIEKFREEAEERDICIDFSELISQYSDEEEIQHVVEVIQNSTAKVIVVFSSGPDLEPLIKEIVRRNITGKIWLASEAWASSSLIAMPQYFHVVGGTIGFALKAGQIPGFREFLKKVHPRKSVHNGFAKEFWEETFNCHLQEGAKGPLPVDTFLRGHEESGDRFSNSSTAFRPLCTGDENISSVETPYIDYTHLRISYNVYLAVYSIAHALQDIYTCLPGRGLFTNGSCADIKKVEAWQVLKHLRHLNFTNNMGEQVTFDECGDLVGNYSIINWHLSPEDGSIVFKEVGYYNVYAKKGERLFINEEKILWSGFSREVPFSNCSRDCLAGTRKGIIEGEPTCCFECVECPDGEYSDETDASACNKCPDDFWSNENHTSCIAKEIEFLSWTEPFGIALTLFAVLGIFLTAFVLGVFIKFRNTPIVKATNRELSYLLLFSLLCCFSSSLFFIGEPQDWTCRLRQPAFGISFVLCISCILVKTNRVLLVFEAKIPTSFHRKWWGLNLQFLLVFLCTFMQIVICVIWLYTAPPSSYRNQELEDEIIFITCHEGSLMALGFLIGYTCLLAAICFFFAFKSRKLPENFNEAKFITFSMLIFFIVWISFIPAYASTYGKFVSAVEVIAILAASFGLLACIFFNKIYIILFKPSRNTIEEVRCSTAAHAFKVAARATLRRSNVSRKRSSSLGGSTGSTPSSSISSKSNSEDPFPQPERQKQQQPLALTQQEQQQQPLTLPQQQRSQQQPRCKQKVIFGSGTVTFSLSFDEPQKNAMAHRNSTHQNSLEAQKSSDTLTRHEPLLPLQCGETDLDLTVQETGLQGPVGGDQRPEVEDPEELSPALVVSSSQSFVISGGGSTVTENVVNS
Description: 3.1.1 Objective: The test example is intended to measure the agonist activity of compounds 1-38 on the human calcium-sensing receptor (CaSR).
Stably transfected HEK293/CaSR cells (source: Pharmaron) were cultured in a complete medium (composition: DMEM, high glucose+10% FBS+2 mM GlutaMAX+1× Penicillin-Streptomycin+200 μg/mL Hygromycin B) and incubated at 37° C./5% CO2 till 70%-90% cell confluence. The cells were digested with TrypLE, inoculated into 384-well cell culture plates, and cultured overnight at 37° C./5% CO2. After buffer exchange, stimulation buffer (HEPES 10 mM, MgCl2 0.5 mM, KCl 4.2 mM, NaCl 146 mM, glucose 5.5 mM, LiCl 50 mM, CaCl2 1.2 mM) and various concentrations of the test example compounds were added and incubated at 37° C. for 60 min. Production of IP-One in cells was detected according to the procedures in the Cisbio IP-One Tb kit instructions. The EC50 values of various test example compounds in influencing human calcium-sensing receptor was calculated by software after the raw data of the example compounds were collected, so as to evaluate the agonist activity of the example compounds on human calcium-sensing receptor.
HTRF signal was read by an EnVision detector with an excitation wavelength of 320 nm and emission wavelengths of 620 nm and 665 nm. The signal ratio (665 nm/620 nm×10,000) was calculated and fitted non-linearly to the sample concentration in GraphPad Prism 6 using a four-parameter equation to give EC50 values of the test example compounds 1-38.

5/6 nephrectomized rats = test: In vivo efficacy in 5/6 nephrectomized rat model after continuous administration (plasma parathyroid hormone, serum calcium)
From the text: 3.5.1 Objective: to evaluate the efficacy of some of the compounds disclosed herein in reducing plasma parathyroid hormone level and serum calcium level after continuous administration in a 5/6 nephrectomized rat model.
The rats were adapted. After anesthesia, ⅔ of the left kidney was surgically resected, and after 1 week of recovery, the right kidney was resected to establish the 5/6 nephrectomized rat model. After the second resection, the animals were normally fed for 2 weeks, tested for creatinine (CREA) and plasma parathyroid hormone level, and randomized as per the parathyroid hormone level into 4 groups of 10, including normal saline group, compound 17—low dose group, compound 17—high dose group and etelcalcetide group. After randomization, the normal saline group, compound 17—low dose group, compound 17—high dose group and etelcalcetide group were respectively administered with 1 dose of normal saline, 1 mg/kg of compound 17, 2 mg/kg of compound 17 and 1 mg/kg of etelcalcetide through the tail vein daily for 28 days. During the treatment period, parameters such as animal weight, plasma parathyroid hormone level and serum calcium were detected. The first day of treatment was taken as day 1.

## CC(=O)N[C@H](CSSC[C@H](N)C(=O)O)C(=O)N[C@H](CCCNC(=N)N)C(=O)N[C@H](CCCNC(=N)N)C(=O)N[C@H](Cc1ccc(C)cc1)C(=O)N[C@H](CCCNC(=N)N)C(=O)N[C@H](C)C(=O)N[C@H](CCCNC(=N)N)C(N)=O [Compound 12, Ac-c(C)-r-r-[D-Phe(4-CH3)]-r-a-r-NH2] (Ac-[dC](Cys(free,S-linked))[dR][dR][dPhe(4-Me)][dR][dA][dR]-NH2)
Human red blood cells; 100 μg/mL in PBS
  hemolytic effect on red blood cells: no significant hemolytic effect
[1]
  Relative fold of histamine release in vitro: 2.81
[2]
  pEC50: 5.89

## CC(=O)N[C@H](CSSC[C@H](N)C(=O)O)C(=O)N[C@H](CCCNC(=N)N)C(=O)N[C@H](CCCNC(=N)N)C(=O)N[C@H](CCC(C)C)C(=O)N[C@H](CCCNC(=N)N)C(=O)N[C@H](C)C(=O)N[C@H](CCCNC(=N)N)C(N)=O [Compound 19, Ac-c(C)-r-r-(D-hLeu)-r-a-r-NH2] (Ac-[dC](Cys(free,S-linked))[dR][dR][d(hLeu)][dR][dA][dR]-NH2)
Human red blood cells; 100 μg/mL in PBS
  hemolytic effect on red blood cells: no significant hemolytic effect
[1]
  Relative fold of histamine release in vitro: 2.07
[2]
  pEC50: 5.69

## CC(=O)N[C@H](CSSC[C@H](N)C(=O)O)C(=O)N[C@H](CCCNC(=N)N)C(=O)N[C@H](CCCNC(=N)N)C(=O)N[C@@H](C(=O)N[C@H](CCCNC(=N)N)C(=O)N[C@H](CO)C(=O)N[C@H](CCCNC(=N)N)C(N)=O)C(C)C [Compound 29, Ac-c(C)-r-r-v-r-s-r-NH2] (Ac-[dC](Cys(free,S-linked))[dR][dR][dV][dR][dS][dR]-NH2)
Human red blood cells; 100 μg/mL in PBS
  hemolytic effect on red blood cells: no significant hemolytic effect
[1]; 10 μM, comparison with etelcalcetide
  histamine release levels in rat peritoneal mast cells in vitro relative to etelcalcetide: reduction in histamine release levels
[1]
  Relative fold of histamine release in vitro: 0.99
[2]
  pEC50: 5.01

## CC(=O)N[C@H](CSSC[C@H](N)C(=O)O)C(=O)N[C@H](CCCNC(=N)N)C(=O)N[C@H](CCCNC(=N)N)C(=O)N[C@H](CCC(C)C)C(=O)N[C@H](CCCNC(=N)N)C(=O)N[C@H](CO)C(=O)N[C@H](CCCNC(=N)N)C(N)=O [Compound 33, Ac-c(C)-r-r-(D-hLeu)-r-s-r-NH2] (Ac-[dC](Cys(free,S-linked))[dR][dR][d(hLeu)][dR][dS][dR]-NH2)
[1]
  Relative fold of histamine release in vitro: 2.50
[2]
  pEC50: 5.30

## CC(=O)N[C@H](CSSC[C@H](N)C(=O)O)C(=O)N[C@H](CCCNC(=N)N)C(=O)N[C@H](CCCNC(=N)N)C(=O)N[C@H](CCC(C)C)C(=O)N[C@H](CCCNC(=N)N)C(=O)NCC(=O)N[C@H](CCCNC(=N)N)C(N)=O [Compound 34, Ac-c(C)-r-r-(D-hLeu)-r-G-r-NH2] (Ac-[dC](Cys(free,S-linked))[dR][dR][d(hLeu)][dR]G[dR]-NH2)
[1]
  Relative fold of histamine release in vitro: 2.28
[2]
  pEC50: 4.91

## CC(=O)N[C@H](CSSC[C@H](N)C(=O)O)C(=O)N[C@H](CCCNC(=N)N)C(=O)N[C@H](CCCNC(=N)N)C(=O)N[C@@H](C(=O)N[C@H](CCCNC(=N)N)C(=O)N[C@H](CO)C(=O)N[C@H](CCCNC(=N)N)C(N)=O)C1CCCCC1 [Compound 35, Ac-c(C)-r-r-(D-Chg)-r-s-r-NH2] (Ac-[dC](Cys(free,S-linked))[dR][dR][dChg][dR][dS][dR]-NH2)
[1]
  Relative fold of histamine release in vitro: 2.06
[2]
  pEC50: 4.89

## CC(=O)N[C@H](CSSC[C@H](N)C(=O)O)C(=O)N[C@H](CCCNC(=N)N)C(=O)N[C@H](CCCNC(=N)N)C(=O)N[C@@H](C(=O)N[C@H](CCCNC(=N)N)C(=O)N[C@H](CO)C(=O)N[C@H](CCCNC(=N)N)C(N)=O)C(C)(C)C [Compound 37, Ac-c(C)-r-r-(D-Tle)-r-s-r-NH2] (Ac-[dC](Cys(free,S-linked))[dR][dR][dTle][dR][dS][dR]-NH2)
[1]
  Relative fold of histamine release in vitro: 2.23
[2]
  pEC50: 4.81

## CC(=O)N[C@H](CSSC[C@H](N)C(=O)O)C(=O)N[C@H](C)C(=O)N[C@H](CCCNC(=N)N)C(=O)N[C@H](CCCNC(=N)N)C(=O)N[C@H](CCCNC(=N)N)C(=O)N[C@H](C)C(=O)N[C@H](CCCNC(=N)N)C(N)=O [Etelcalcetide, Ac-c(C)-a-r-r-r-a-r-NH2, reference compound]
[1]
  Relative fold of histamine release in vitro: 1.70
5/6 nephrectomized rats; after administration on days 1, 14 and 28
  serum calcium reduction: reversible serum calcium reduction
5/6 nephrectomized rats; minimum of serum calcium on days 14 and 28 compared to day 1
  extent of serum calcium reduction with the period of treatment: did not increase with the period of treatment
[2]
  pEC50: 5.17

## octylphenoxy poly(ethyleneoxy)ethanol-100 [reference compound]
Human red blood cells; positive control solution
  hemolytic effect on red blood cells: significant hemolytic effect
